{"source": "paper PMC7339578", "about": "“Multiple circulating alkaloids and saponins from intravenous Kang-Ai injection inhibit human cytochrome P450 and UDP-glucuronosyltransferase isozymes: potential drug–drug interactions” (Chinese Medicine, 2020)", "key": {"[1]": {"test_system": "UGT2B7", "parameters": "method as in PMID 27916843", "conditions": "read-out: Ki towards UGT2B7; cited from earlier work"}, "[2]": {"test_system": "UGT1A8", "conditions": "cited from earlier work"}, "[3]": {"test": "Plasma pharmacokinetics in rats after a 30-min intravenous infusion of Kang-Ai injection", "assay_type": "in vivo, Sprague–Dawley rats", "conditions": "male, Sprague-Dawley, rat, in vivo, iv", "in_short": "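Fasted male Sprague–Dawley rats (250 ± 20 g) got a single 30-min tail-vein infusion of Kang-Ai injection at 6 mL/kg. Jugular blood was sampled from 5 min to 12 h for plasma. Parameters came from non-compartmental analysis (trapezoidal AUC), n = 3.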"}, "[4]": {"test": "Urinary (renal) excretion in rats after a 30-min infusion of Kang-Ai injection", "assay_type": "in vivo, Sprague–Dawley rats", "conditions": "Kang-Ai injection 6 mL/kg iv", "in_short": "(§1)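 Urine collected in metabolic cages at 0–4, 4–8, 8–12 h and bile at 0–3, 3–6, 6–9, 9–12 h after infusion start, weighed and frozen at −80 °C. Non-compartmental analysis; CLR and CLB as cumulative urinary or biliary amount divided by plasma AUC0-∞, fe-U and fe-B as cumulative amount/dose; mean ± SD (n = 3).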"}, "[5]": {"test": "Biliary (hepatobiliary) excretion in rats after a 30-min infusion of Kang-Ai injection", "assay_type": "in vivo, Sprague–Dawley rats", "conditions": "rat bile 0–12 h; Kang-Ai injection 6 mL/kg iv", "in_short": "as §1"}, "[6]": {"test": "Protein binding assay (equilibrium dialysis)", "assay_type": "in vitro ADME, rat", "conditions": "rat, plasma", "method": "Binding of circulating alkaloids and saponins to rat plasma was measured by equilibrium dialysis using Spectra/Por 2 dialysis membranes (molecular weight cutoff, 12–14 kDa; Rancho Dominguez, CA, USA) as described. After equilibrating for 24 h at 55 rpm and 37 °C, the dialysate and the plasma were sampled for analysis. […] The concentrations of tested matrine, oxysophocarpine and oxymatrine were 2 μmol/L, while those of astragaloside IV, III, and ginsenosides Rh1, Rg2, Rg1, Rf, Re, Rd, Rc, Rb1, Rb2, notoginsenosides R1, R2, were 4 μmol/L. The unbound fraction (fu-plasma) in rat plasma was calculated as follow: fu-plasma = Cd/Cp × 100%, where the Cd and Cp values were the concentrations of each analyte in the dialysate sample and in the post-dialysis plasma sample, respectively."}, "[7]": {"test": "Stability tests of analytes in rat plasma QC samples", "assay_type": "in vitro ADME", "conditions": "rat plasma", "method": "[…] The dilution integrity was investigated by analyzing six replicate samples with each analyte, and each analyte were diluted 10-fold with blank rat matrix. Furthermore, the diluted samples were analyzed using freshly prepared calibration curve to calculate RE and RSD, which should be no more than ± 15% as criterion."}}}
{"smiles": "CC(C)(O)[C@@H]1CC[C@](C)([C@H]2[C@@H](O)C[C@@]3(C)[C@@H]4C[C@H](O)[C@H]5C(C)(C)[C@@H](O)CC[C@@]56C[C@@]46CC[C@]23C)O1", "note": "[cycloastragenol]", "values": [{"measurement": "Ki", "setting": "[1]", "result": 21, "unit": "µM"}, {"measurement": "Ki", "setting": "[2]", "result": 0.034, "unit": "µM"}]}
{"smiles": "CC(C)=CCC[C@](C)(O)[C@H]1CC[C@]2(C)[C@@H]1[C@H](O)C[C@@H]1[C@@]3(C)CC[C@H](O)C(C)(C)[C@@H]3[C@@H](O[C@@H]3O[C@H](CO)[C@@H](O)[C@H](O)[C@H]3O[C@@H]3O[C@@H](C)[C@H](O)[C@@H](O)[C@H]3O)C[C@]12C", "note": "[Compound C5, Ginsenoside Rg2]", "values": [{"measurement": "Cmax", "setting": "[3]", "result": "231 ± 17.4", "unit": "nM"}, {"measurement": "clearance", "setting": "[3]", "result": 2.63, "unit": "mL/min"}, {"measurement": "half-life", "setting": "[3]", "result": "9.77 ± 13.7", "unit": "h"}, {"measurement": "AUC(0-t)", "setting": "[3]; AUC0–12h", "result": "> 0.1", "unit": "µM·h"}, {"measurement": "CL renal", "setting": "[4]; male, Sprague-Dawley, urine and plasma, rat, read-out: CLR (renal excretory clearance) (converted)", "result": 0.0552, "unit": "mL/min"}, {"measurement": "fe-U,0–12h (fraction of dose excreted into urine)", "setting": "[4]; rat urine 0–12 h", "result": "2.23 ± 0.61", "unit": "%"}, {"measurement": "fe-B,0–12h (fraction of dose excreted into bile)", "setting": "[5]", "result": "20.76 ± 3.37", "unit": "%"}, {"measurement": "fraction unbound at 24 h", "setting": "[6]", "result": "0.265 ± 0.0328"}, {"measurement": "At -80 °C for 48 h, Mean±SD", "setting": "[7]; nominal conc. 20 nM", "result": "19.84 ± 1.04", "unit": "nM"}, {"measurement": "At -80 °C for 48 h, RE", "setting": "[7]; nominal conc. 20 nM", "result": -6.64, "unit": "%"}, {"measurement": "Extracted samples at 8 °C for 18 h, Mean±SD", "setting": "[7]; nominal conc. 20 nM", "result": "21.07 ± 0.87", "unit": "nM"}, {"measurement": "Extracted samples at 8 °C for 18 h, RE", "setting": "[7]; nominal conc. 20 nM", "result": 8.32, "unit": "%"}, {"measurement": "Short-term stability at room temperature for 6 h, Mean±SD", "setting": "[7]; nominal conc. 20 nM", "result": "19.68 ± 2.51", "unit": "nM"}, {"measurement": "Short-term stability at room temperature for 6 h, RE", "setting": "[7]; nominal conc. 20 nM", "result": 12.85, "unit": "%"}, {"measurement": "Three freeze-thaw cycles (-80 °C ↔ 23 °C), Mean±SD", "setting": "[7]; nominal conc. 20 nM", "result": "21.26 ± 1.22", "unit": "nM"}, {"measurement": "Three freeze-thaw cycles (-80 °C ↔ 23 °C), RE", "setting": "[7]; nominal conc. 20 nM", "result": 11.13, "unit": "%"}, {"measurement": "At -80 °C for 48 h, Mean±SD", "setting": "[7]; nominal conc. 100 nM", "result": "96.95 ± 8.62", "unit": "nM"}, {"measurement": "At -80 °C for 48 h, RE", "setting": "[7]; nominal conc. 100 nM", "result": -8.82, "unit": "%"}, {"measurement": "Extracted samples at 8 °C for 18 h, Mean±SD", "setting": "[7]; nominal conc. 100 nM", "result": "98.05 ± 6.29", "unit": "nM"}, {"measurement": "Extracted samples at 8 °C for 18 h, RE", "setting": "[7]; nominal conc. 100 nM", "result": -8.46, "unit": "%"}, {"measurement": "Short-term stability at room temperature for 6 h, Mean±SD", "setting": "[7]; nominal conc. 100 nM", "result": "87.52 ± 0.79", "unit": "nM"}, {"measurement": "Short-term stability at room temperature for 6 h, RE", "setting": "[7]; nominal conc. 100 nM", "result": -12.97, "unit": "%"}, {"measurement": "Three freeze-thaw cycles (-80 °C ↔ 23 °C), Mean±SD", "setting": "[7]; nominal conc. 100 nM", "result": "104.41 ± 11.32", "unit": "nM"}, {"measurement": "Three freeze-thaw cycles (-80 °C ↔ 23 °C), RE", "setting": "[7]; nominal conc. 100 nM", "result": 12.73, "unit": "%"}, {"measurement": "At -80 °C for 48 h, Mean±SD", "setting": "[7]; nominal conc. 400 nM", "result": "410.70 ± 32.70", "unit": "nM"}, {"measurement": "At -80 °C for 48 h, RE", "setting": "[7]; nominal conc. 400 nM", "result": 8.22, "unit": "%"}, {"measurement": "Extracted samples at 8 °C for 18 h, Mean±SD", "setting": "[7]; nominal conc. 400 nM", "result": "404.47 ± 42.95", "unit": "nM"}, {"measurement": "Extracted samples at 8 °C for 18 h, RE", "setting": "[7]; nominal conc. 400 nM", "result": -10.83, "unit": "%"}, {"measurement": "Short-term stability at room temperature for 6 h, Mean±SD", "setting": "[7]; nominal conc. 400 nM", "result": "361.60 ± 11.46", "unit": "nM"}, {"measurement": "Short-term stability at room temperature for 6 h, RE", "setting": "[7]; nominal conc. 400 nM", "result": -11.77, "unit": "%"}, {"measurement": "Three freeze-thaw cycles (-80 °C ↔ 23 °C), Mean±SD", "setting": "[7]; nominal conc. 400 nM", "result": "374.05 ± 38.03", "unit": "nM"}, {"measurement": "Three freeze-thaw cycles (-80 °C ↔ 23 °C), RE", "setting": "[7]; nominal conc. 400 nM", "result": -12.71, "unit": "%"}]}
